Test results as given in patent publication US12440440B2, “Dry powder esketamine composition for use in the treatment of bipolar depression by pulmonary administration” (Novohale Therapeutics, LLC, priority 2017, dated 2025).
Where a name gives a salt, the structure may show the parent alone.

Experiments:
[1] = in vivo; cited from earlier work
[2] = cited from earlier work
[3] = cited from earlier work; remark: listed apart in the source
[4] = Predicted esketamine plasma concentration for 0.20 mg/kg 40 minutes intravenous infusion; format: in vivo; conditions: human, 0.2 mg/kg, predicted on the basis of literature data
Description: The aim of the study was to determine the amount of puffs needed to obtain plasma concentration similar to that sufficient to achieve antidepressant effect as for 0.20 mg/kg 40 minutes intravenous infusion. It can be predicted on the basis of literature data that this corresponds to concentration at 40 min of infusion between about 60 to 100 ng/ml. It was also the aim to determine the number of puffs that allow to avoid a sharp peak of plasma concentration that is considered an important factor inducing adverse psychomimetic and dissociative effects.

[5] = 40-minute i.v. infusion of 0.20 mg/kg or 0.40 mg/kg, TRD patients; cited from earlier work
[6] = nebulized saline solution, inhalation; cited from earlier work
NMDA receptor = conditions: cited from earlier work
[7] = oral administration of ketamine
[8] = i.v. infusion of racemic ketamine

## CNC1(c2ccccc2Cl)CCCCC1=O (racemic) [ketamine]
[1]
  proportion of patients with treatment-resistant depression responsive to treatment: about ⅔
[2]; orally administered
  bioavailability: 16-20%
[3]; after i.v. infusion 0.5 mg/kg for 40 minutes
  half-period of concentration fall: below 2 hours
[3]; i.v. infusion 0.5 mg/kg for 40 minutes, maintained for about 40 minutes
  systemic concentration of parent drug: about 200 ng/ml

## CN[C@]1(c2ccccc2Cl)CCCCC1=O [esketamine]
[4]
  concentration at 40 min: 60 to 100 ng/mL
[5]
  antidepressant effects: rapid onset of robust antidepressant effects

## CN[C@]1(c2ccccc2Cl)CCCCC1=O [esketamine hydrochloride]
[6]
  inhaled bioavailability: reduced

## NC1(c2ccccc2Cl)CCCCC1=O (stereo not drawn) [norketamine]
[2]; [7]
  AUC for norketamine relative to ketamine: exceeding 1000%
  norketamine level relative to ketamine level: 500-1000%
NMDA receptor
  activity on NMDA receptor relative to ketamine: many times less active than ketamine
[3]; [8]
  maximum concentration as level of ketamine concentration: 10-20%
  percentage of AUC norketamine to ketamine: 20-40%
